# Values of other authors in publication PMC12648288, “Drastic Impact of Donor Substituents on Xanthenes in the PDT of Glioblastoma” (JACS Au, 2025).
# Where two headings read alike, the source gives them in different places. No end group written: not given here. TPC = chlorin-type photosensitizer; Ahx = NCCCCCC(=O)O
# How the values were obtained:
# [1] = cited from earlier work
# U87MG = conditions: cited from earlier work; for IC50: 32 (SI list)
# T98G = conditions: ref 28 (SI list); cited from earlier work
# SNB-19 = system: SNB-19; parameters: method as in ref 11 (SI list); conditions: ref 11 (SI list); cited from earlier work
# F98 = conditions: 31 (SI list); cited from earlier work
# [2] = in MeOH, as fraction; cited from earlier work
# HUVEC = system: HUVEC; parameters: method as in ref 16 (SI list); conditions: ref 16 (SI list); cited from earlier work
# A172 = system: A172; parameters: method as in ref 29 (SI list); conditions: ref 29 (SI list); cited from earlier work
# DBTRG-05 = system: DBTRG-05; parameters: method as in ref 29 (SI list); conditions: ref 29 (SI list); cited from earlier work
# [3] = measured in PBS (pH 7.4), 22-32 (SI list)
compound,measurement,setting,value
CN(C)c1ccc2cc3ccc(N(C)C)cc3nc2c1 [Acridine Orange],Abs (nm),[1]; [3],487 nm
COc1c(CC(C)O)c2c3c(CC(C)O)c(OC)c(=O)c4c(O)cc5c(c6c(cc(O)c(c1=O)c62)OCO5)c43 (centres unmarked) [Cercosporin],Abs (nm),[1]; [3],473 nm
same,LD50,U87MG; ref 28 (SI list),4 µM
same,LD50,T98G,4 µM
"COc1cc(/C=C/C(=O)CC(=O)/C=C/c2ccc(O)c(OC)c2)ccc1O [Curcumin (CUR), Curcumin]",IC50,SNB-19,5.74 µM
CCCCCCOC(C)c1c(C)c2cc3nc(c4c5[nH]c(cc6nc(cc1[nH]2)C(C)=C6CC)c(C)c5C(=O)C4)C(CCC(=O)Nc1ccc(SC2=C(C=CC4=[N+](CCCCS(=O)(=O)[O-])c5ccc6ccccc6c5C4(C)C)CCCC2=CC=C2N(CCCCS(=O)(=O)[O-])c4ccc5ccccc5c4C2(C)C)cc1)C3C.[Na+] (centres unmarked) [HPPH-CD],Abs (nm),[1]; [3],848 nm
same,IC50,U87MG,1.63 µM
"C=Cc1c(C)c2cc3nc(cc4nc(cc5[nH]c(cc1[nH]2)c(C)c5C(C)OC(C)c1c(C)c2cc5[nH]c(cc6nc(cc7nc(cc1[nH]2)C(C)=C7CCC(=O)[O-])C(CCC(=O)[O-])=C6C)c(C)c5C=C)C(C)=C4CCC(=O)[O-])C(CCC(=O)[O-])=C3C.[Na+].[Na+].[Na+].[Na+] (centres unmarked) [Sinoporphyrin sodium (DVDMS), Sinoporphyrin sodium]",Abs (nm),[1]; [3],631 nm
Cc1ccnc(-c2cc(C)ccn2)c1.Cc1ccnc(-c2cc(C)ccn2)c1.[Cl-].[Cl-].[Ru+2].c1csc(-c2ccc(-c3ccc(-c4nc5c6cccnc6c6ncccc6c5[nH]4)s3)s2)c1 [TLD1433],Abs (nm),[1]; [3],416 nm
same,IC50,U87MG,0.051 µM
same,IC50,F98,2.81 µM
[Zn+2].c1ccc2c(c1)-c1nc-2nc2[n-]c(nc3nc([n-]c4nc(n1)-c1ccccc1-4)-c1ccccc1-3)c1ccccc21 [ZnPc],Abs (nm),[1]; [3],645 nm
CN(C)c1ccc2nc3ccc(=[N+](C)C)cc-3sc2c1 [methylene blue],ΦF of reference standard,[2],0.23
Benzoporphyrin derivative [Benzoporphyrin derivative (BPD)],Abs (nm),[1]; [3],692 nm
same,IC50,U87MG,13.1 µM
TPC–Ahx–ATWLPPR: chlorin-type photosensitizer conjugated to neuropilin-1 targeting peptide (SI ref 16) ({TPC-Ahx}-ATWLPPR),Abs (nm),"[1]; EtOH, 16 (SI list)",420 nm
same,IC50,HUVEC,171 µM
Tetrahydroporphyrin-Tetratosylat [THPTS],Abs (nm),[1]; [3],760 nm
same,IC30,U87MG; ref 29 (SI list),2 µM
same,IC30,A172,10 µM
same,IC30,DBTRG-05,4 µM
[(Ph2phen)2Os(dpp)]2+,Abs (nm),[1]; [3],650 nm
same,IC50,F98,86.1 µM
